Data published in ChEMBL document CHEMBL5050836, “Inhibitors of eya3-protein tyrosine phosphatase in dna damage repair signaling of pulmonary arterial hypertension” (2021).
Activity calls are given as the source filed them. The rule behind the calls is not given here.

Columns and labels:
Lung [1] = test: Protection against pulmonary hypertension in Sugen-Hypoxia (SuHx) rat model assessed as reduction in gamma-H2AX foci in lungs; format: functional, tissue-based
Lung [2] = test: Protection against pulmonary hypertension in Sugen-Hypoxia (SuHx) rat model assessed as reduction in 53BP1 foci in lungs; format: functional, tissue-based
Liver = test: Hepatotoxicity in rats at 0.15 to 1.5 mg administered via instillation in to trachea; format: toxicity; settings: rat, in vivo, inhaled_or_intranasal; dose 0.15-1.5 mg

## CCc1oc2ccccc2c1C(=O)c1ccc(O)cc1 [BENZARONE]
Lung [1]
  Activity: Active
Lung [2]
  Activity: Active
Liver
  Activity: Non-Toxic
